Structures can show the parent of a compound that is named as a salt. Where two headings read alike, the source gives them in different places.
Tests used:
[1] = biological target: T1, rabbit muscle glycogen phosphorylase a (RMGPa) (Oryctolagus cuniculus, UniProt P00489); design: method as in PMID 33906369; conditions: previously reported parent compound; read-out: IC50 (RMGPa inhibition) of parent compound; cited from earlier work
T1 construct: purchased
T1 sequence (P00489 2-843 limits assumed): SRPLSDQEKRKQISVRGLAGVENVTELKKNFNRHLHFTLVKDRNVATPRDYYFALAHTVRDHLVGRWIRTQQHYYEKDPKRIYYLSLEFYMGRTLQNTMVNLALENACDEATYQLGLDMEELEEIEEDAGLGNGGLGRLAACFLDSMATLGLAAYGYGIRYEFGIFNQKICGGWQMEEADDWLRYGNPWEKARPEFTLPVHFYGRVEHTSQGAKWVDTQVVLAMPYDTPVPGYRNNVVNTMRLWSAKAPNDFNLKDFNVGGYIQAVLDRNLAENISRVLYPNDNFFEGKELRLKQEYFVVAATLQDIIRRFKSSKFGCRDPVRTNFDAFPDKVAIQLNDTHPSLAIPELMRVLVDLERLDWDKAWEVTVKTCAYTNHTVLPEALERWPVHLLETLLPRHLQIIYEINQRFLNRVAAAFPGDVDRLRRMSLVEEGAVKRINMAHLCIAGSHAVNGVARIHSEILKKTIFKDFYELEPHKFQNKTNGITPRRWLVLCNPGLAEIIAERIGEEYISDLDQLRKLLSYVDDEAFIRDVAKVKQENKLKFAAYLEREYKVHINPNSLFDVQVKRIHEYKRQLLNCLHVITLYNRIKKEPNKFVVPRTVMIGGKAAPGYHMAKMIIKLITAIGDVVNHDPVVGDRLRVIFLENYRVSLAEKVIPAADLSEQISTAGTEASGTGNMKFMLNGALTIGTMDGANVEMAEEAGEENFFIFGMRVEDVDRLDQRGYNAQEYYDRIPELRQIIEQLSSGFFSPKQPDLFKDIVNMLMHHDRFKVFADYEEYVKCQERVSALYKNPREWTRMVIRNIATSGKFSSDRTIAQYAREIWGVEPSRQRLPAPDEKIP

[2] = biological target: T1, rabbit muscle glycogen phosphorylase a (RMGPa); assay: RMGPa enzyme inhibition assay (phosphate release, malachite green); format: biochemical; conditions: mean ± S.D. of three determinations; NI means no inhibition
Experimental: The synthesized compounds were evaluated in an enzyme inhibition assay against rabbit muscle glycogen phosphorylase a (RMGPa), a commercially available enzyme that shares considerable sequence similarity with human liver GPa. As described previously, the activity of RMGPa was measured by detecting the release of phosphate from glucose-1-phosphate in the direction of glycogen synthesis. PSN-357, a GP inhibitor in clinical Phase II, was used as positive control.
The inhibitory activity of the test compounds against RMGPa was evaluated using a microplate reader (Bio-Rad Laboratories, Berkeley, CA, USA), based on the release of inorganic phosphate during glycogenolysis. First, the test compounds were dissolved in DMSO and diluted to various concentrations for IC50 determination. A 100 μL aliquot of buffer, containing 50 mM Hepes (pH = 7.2), 100 mM potassium chloride (KCl), 2.5 mM magnesium chloride (MgCl2), 0.5 mM glucose-1-phosphate, 1 mg/mL glycogen, and the test compound solution, was added to a 96-well Costar microplate (Corning Inc., New York, NY, USA). The reaction mixture was incubated at 22 °C for 25 min, after which 150 μL of solution containing 10 mg/mL ammonium molybdate and 0.38 mg/mL malachite green was added to stop the reaction. The absorbance of phosphate was measured at 620 nm. IC50 values were determined by fitting the inhibition data to a dose–response curve using a logistic derivative equation.

[3] = system: hyperglycemic mice induced by adrenaline; assay: Acute hypoglycemic experiment in adrenaline-induced hyperglycemic mice; format: in vivo, C57BL/6J mice; conditions: 400 mg/kg single oral dose, about 2 h after administration; model group 8.91 ± 0.69; p < 0.01; mean ± SEM
Experimental: First, its ability was investigated by oral administration with one dose of 0.5% CMC-NA (model group) or compound Id at different concentrations (12.5, 25 and 50 mg/kg) for treatment. Metformin (400 mg/kg) was selected as a positive control.
The animal experiments were conducted following the method described in reference. Male C57BL/6J mice (6–8 weeks old, 18–20 g) were obtained from Beijing Huafukang Biotechnology Co., Ltd. (Beijing, China), maintained under standard conditions (food/water ad libitum), and acclimatized for 1 week. After acclimatization, baseline blood glucose was measured via tail vein sampling. Subsequently, mice were randomized into 6 groups (10/group) by blood glucose/body weight, with no significant differences in initial blood glucose (mean ± SEM). Post-grouping, daily oral 0.5% CMC-Na (as vehicle) was given. On the night before the experimental day, mice were fasted overnight with free access to water. On the experimental day, mice were orally administered Compound Id (50, 25, 12.5 mg/kg), metformin (400 mg/kg, as positive control), or 0.5% CMC-Na, followed by subcutaneous 0.2 mg/kg adrenaline to induce hyperglycemia. Finally, blood glucose was measured/recorded at 0, 30, 60, 90, and 120 min post-administration via JPS-5 meter.

Row | IC50 [2] [µM] | SMILES | further results
1 | – | O=C1CCOc2ccc(NC(=O)c3cc4cc(Cl)ccc4[nH]3)cc2N1 [Compound 1] | IC50 [1]: 0.25 ± 0.05 µM
2 | 0.723 ± 0.082 | O=C(Nc1ccc2c(c1)NC(=O)c1ccc(C(F)(F)F)cc1O2)c1cc2cc(O)ccc2[nH]1 [IIb] | –
3 | 0.84 ± 0.05 | COc1ccc2[nH]c(C(=O)Nc3ccc4c(c3)NC(=O)c3ccc(C(F)(F)F)cc3O4)cc2c1 [IIc] | –
4 | 1.79 ± 0.104 | COc1cnc2[nH]c(C(=O)Nc3ccc4c(c3)NC(=O)c3ccc(C(F)(F)F)cc3O4)cc2c1 [IId] | –
5 | 0.338 ± 0.055 | Cc1ccc2[nH]c(C(=O)Nc3ccc4c(c3)NC(=O)c3ccc(C(F)(F)F)cc3O4)cc2c1 [IIf] | –
6 | 2.18 ± 0.156 | CCCc1cc(OC)c2c(c1)C(=O)Nc1cc(NC(=O)c3cc4cc(Cl)ccc4[nH]3)ccc1O2 [Ie, 5-chloro-N-(3-methoxy-11-oxo-5-propyl-10,11-dihydrodibenzo[b,f][1,4]oxazepin-8-yl)-1H-indole-2-carboxamide] | –
7 | – | CN(C)C(=N)N=C(N)N [Metformin, Metformin hydrochloride, reference compound] | blood glucose [3]: 6.57 ± 0.71 mmol/L
